Data published in patent US20230355622A1, “METHODS OF CHEMOVACCINATION AGAINST PLASMODIUM INFECTIONS” (Merck Sharp & Dohme LLC, priority 2020, published 2023).
Read-outs that look alike come from different tables or passages of the source.

Tested on: parasite
Test: Parasite LDH growth assay (Parasite Assay), antiparasite potency
Format: cell-based
Details: parasite LDH growth assay, ring stage parasites, 72 hours incubation at 37° C., read-out: EC50
Protocol: Assessing Antiparasite Potency in a Parasite LDH Growth Assay (Parasite Assay)
The parasite stock was maintained at 4% haematocrit in RPMI-Hepes media buffered with sodium bicarbonate and supplemented with 5% heat inactivated human serum and 0.5% albumax.
On the day of assay set up, a blood smear of the parasite culture was Giemsa stained and counted. The parasitemia was adjusted to 0.7% rings and the haematocrit was diluted to 2% in RPMI-Hepes media buffered with sodium bicarbonate and supplemented with 5% heat inactivated human serum and 0.5% albumax. 30 ul of diluted parasites are then added into 10 ul of media+compound in pre-prepared Greiner TC assay plates. Parasite assay plates were placed in gassed humidified boxes in single layer and allowed to incubate at 37° C. for 72 hours. After 72 hours growth, assay plates are sealed with parafilm and frozen flat, in single file at −80° C. overnight. On the following day, assay plates are allowed to thaw at room temperature for 4 hours to which an LDH assay is performed to measure parasite growth.

Structure (SMILES)	EC50 (72 h)	EC50
CCC1(CC)CC(=O)N([C@H]2c3cc(C(=O)N[C@H]4CC(C)(C)Oc5ccccc54)ccc3OC[C@@H]2OC)C(=N)N1 [Example 68A, (3R,4S)-4-(4,4-diethyl-2-imino-6-oxotetrahydropyrimidin-1(2H)-yl)-N-((S)-2,2-dimethylchroman-4-yl)-3-methoxychromane-6-carboxamide]	1 nM	–
CCC1(CC)CC(=O)N([C@H]2c3cc(C(=O)N[C@@H]4c5ccccc5C[C@H]4O)ccc3OCC2OC)C(=N)N1 (stereo partly drawn) [Example 72A, (3R,4S)-4-(4,4-diethyl-2-imino-6-oxotetrahydropyrimidin-1(2H)-yl)-N-((1R,2R)-2-hydroxy-2,3-dihydro-1H-inden-1-yl)-3-methoxychromane-6-carboxamide]	–	0.5 nM
CCC1(CC)CC(=O)N([C@H]2c3cc(C(=O)N[C@@H]4c5ccccc5OC(C)(C)[C@H]4O)ccc3OC2(C)COC)C(=N)N1 (stereo partly drawn) [Example 73A, (2S,3S)-3-(4,4-diethyl-2-imino-6-oxotetrahydropyrimidin-1(2H)-yl)-N-((3S,4R)-3-hydroxy-2,2-dimethylchroman-4-yl)-2-(methoxymethyl)-2-methyl-2,3-dihydrobenzofuran-5-carboxamide]	–	0.3 nM
CCC1(CC)CC(=O)N([C@H]2c3cc(C(=O)N[C@H]4CC(C)(C)Oc5ccccc54)ccc3OC2(C)COC)C(=N)N1 (stereo partly drawn) [Example 74A, (2S,3S)-3-(4,4-diethyl-2-imino-6-oxotetrahydropyrimidin-1(2H)-yl)-N-((S)-2,2-dimethylchroman-4-yl)-2-(methoxymethyl)-2-methyl-2,3-dihydrobenzofuran-5-carboxamide]	–	0.3 nM
CCC1(CC)CC(=O)N([C@@H]2Cc3ccc(C(=O)N[C@@H]4c5ccccc5C[C@H]4O)cc32)C(=N)N1 [Example 83, (8R)-8-(4,4-diethyl-2-imino-6-oxo-hexahydropyrimidin-1-yl)-N-[(1R,2R)-2-hydroxyindan-1-yl]bicyclo[4.2.0]octa-1(6),2,4-triene-3-carboxamide]	20 nM	–
CC1(C)CC(=O)N([C@@H]2CCc3ccc(C(=O)N[C@H]4CC(C)(C)Oc5ccccc54)cc32)C(=N)N1 [Example 84, (3R)-N-[(4S)-2,2-dimethylchroman-4-yl]-3-(2-imino-4,4-dimethyl-6-oxo-hexahydropyrimidin-1-yl)indane-5-carboxamide]	0.9 nM	–
CC1(C)CC(=O)N(C2c3cc(C(=O)N[C@@H]4c5ccccc5C[C@H]4O)ccc3CC2(C)C)C(=N)N1 (stereo partly drawn) [Example 87, N-[(1R,2R)-2-hydroxyindan-1-yl]-3-(2-imino-4,4-dimethyl-6-oxo-hexahydropyrimidin-1-yl)-2,2-dimethyl-indane-5-carboxamide]	105 nM	–
C[C@@H]1C[C@@H](N2C(=N)NC(C)(C)CC2=O)c2cc(C(=O)N[C@@H]3c4ccccc4OC[C@@]3(C)O)ccc21 [Example 104, (1R,3R)-N-[(3S,4R)-3-hydroxy-3-methyl-chroman-4-yl]-3-(2-imino-4,4-dimethyl-6-oxo-hexahydropyrimidin-1-yl)-1-methyl-indane-5-carboxamide]	5 nM	–
COC1COc2ccc(C(=O)N[C@@H]3c4ccccc4C[C@H]3O)cc2C1N1C(=N)NC(C)(C)CC1=O (stereo partly drawn) [Example 110, N-[(1R,2R)-2-hydroxyindan-1-yl]-4-(2-imino-4,4-dimethyl-6-oxo-hexahydropyrimidin-1-yl)-3-methoxy-chromane-6-carboxamide]	60 nM	–
CCC1(CC)CC(=O)N([C@@H]2CCOc3ccc(C(=O)N[C@@H](C)c4ccccc4OC)cc32)C(=N)N1 [Example 111, (4R)-4-(4,4-diethyl-2-imino-6-oxo-hexahydropyrimidin-1-yl)-N-[(1S)-1-(2-methoxyphenyl)ethyl]chromane-6-carboxamide]	90 nM	–
CCC1(CC)CC(=O)N([C@H]2c3cc(C(=O)N[C@@H]4c5ccccc5C[C@H]4O)ccc3OC[C@H]2C)C(=N)N1 [Example 118, (3S,4R)-4-(4,4-diethyl-2-imino-6-oxo-hexahydropyrimidin-1-yl)-N-[(1R,2R)-2-hydroxyindan-1-yl]-3-methyl-chromane-6-carboxamide]	0.9 nM	–
